{"source": "paper PMC10869804", "about": "(Scientific Reports, 2024)", "key": {"[1]": {"target": "6xHis-Flag affinity tagged Orf63 from lambda bacteriophage (phage λ)", "experiment": "SEC-MALS; 2 mg/mL Orf63; 10 mM Tris-HCl, 0.15 M NaCl, pH 8.0; SEC300A column at 0.2 mL/min"}, "[2]": {"target": "fluorescent designed Orf63 binding peptide FAM-Ahx-…", "experiment": "fluorescence polarisation; 10 nM fluorescent peptide with varying concentrations of Orf63 (per protomer) in PBS pH 7.4; 1:1 binding function, each peptide assumed to bind each protomer independently"}, "15N-Orf63 dimer": {"system": "15N-Orf63 dimer", "experiment": "15N-HSQC mixing experiment with ubiquitin fusion proteins", "format": "binding, lambda bacteriophage", "settings": "2:1 ubiquitin fusion to 15N-Orf63 dimer, 5 mM Tris-Cl pH 7.4, 50 mM NaCl", "procedure": "Amino acid substitution mutants were prepared using the Q5 mutagenesis method (New England Biolabs) with oligonucleotides from IDT. […] At an A600 of 0.8, expression was induced by the addition of 1 mM isopropyl thiogalactoside (IPTG), and the culture was grown for 3 h further before harvesting. Detailed information regarding the purification of this fragment by nickel affinity and gel filtration chromatography has been published previously. For NMR spectroscopy, a uniformly ^13C, ^15N isotopically labelled protein sample was made from a 1 L culture containing M9 minimal media salts supplemented with 3 g of ^13C-glucose (Sigma-Aldrich), 1 g of ^15N ammonium chloride (Sigma-Aldrich) and 1 g of ^13C,^15N Celtone algal extract (Cambridge Isotopes). Natural abundance Orf63 proteins were prepared using a similar protocol except cultures were grown in LB media. Protein concentrations were estimated by UV absorbance at 280 nm. […]\ndesign ubiquitin […]\ncontrol ubiquitin […]\n(a) A mixing experiment was performed with 15N-Orf63 and a Ubiquitin-fusion protein with a C-terminal extension corresponding to a designed peptide, or an unrelated peptide control. The mixing ratio was 2:1 (Ubiquitin fusion […]\n(b,c) 15N-HSQC spectra of 15N-Orf63\n(blue) and 15N-Orf63 mixed with a Ubiquitin fusion protein. Asterisks denote peaks that were […]"}, "Orf63": {"system": "Orf63", "experiment": "1H,15N-HSQC comparison of Orf63-linker-peptide hybrid protein with Orf63", "format": "binding, lambda bacteriophage", "settings": "0.15 mM 15N-labeled 6xHis-Flag-Orf63-linker-peptide vs 0.15 mM 15N-labeled 6xHis-Flag-Orf63"}, "15N-Orf63": {"system": "15N-Orf63", "experiment": "15N-HSQC titration / chemical shift perturbation (CSP) mapping of peptide binding", "parameters": "species or system lambda bacteriophage", "procedure": "(a) ^1H-^15N chemical shift perturbations (CSPs) measured between ^15N-Orf63 free, and in complex with a unlabelled designed peptide. Blue shading highlights a CSP > 0.05.\nA titration was performed by acquiring a series of ^15N-HSQC spectra of 0.48 mM ^15N-Orf63 (monomeric concentration) with 0.12, 0.24, 0.36, 0.48, and 0.60 mM peptide ([…]) manufactured by GenScript (Piscataway, NJ) in phosphate buffered saline pH 7.4. Assignments of peptide-bound ^15N-Orf63, particularly through two helical regions, were made by walking through HN-HN correlations in a 3D 15N-NOESY spectrum.\nMost resonances during the […]\nthroughout the two a-helical regions, was confirmed by an HN-HN walk through a 3D 15N-NOESY spectrum. Unassigned resonances N-terminal helix a1 and C-terminal to helix a2 are likely unstructured due to the absence of i,i+3, i,i+4, and HN-HN NOEs. The residue numbering follows the PDB file 8DSB and the expressed protein with N-terminal affinity […]\n(1 picture or pasted object on this page, not shown here)"}, "[3]": {"system": "lysogenic or lytic developmental outcome of phage λ infection", "settings": "period to new viral progeny, bacterial survivors, conversion to lysogens; ref [8],[11]; cited from earlier work"}}}
{"molecule": "6xHis-Flag affinity tagged Orf63 from lambda bacteriophage (natural protein)", "values": [{"measurement": "stoichiometry N", "setting": "[1]", "value": 2}, {"measurement": "Kd", "setting": "[2]", "value": 3.1, "unit": "µM"}]}
{"molecule": "DTKELILAIARKVKEMIKNS [Ubiquitin fusion protein]", "values": [{"measurement": "line broadening / chemical shift changes", "setting": "15N-Orf63 dimer", "value": "significant line broadening suggesting binding was occurring"}, {"measurement": "line broadening / chemical shift changes", "setting": "15N-Orf63 dimer; listed as design", "value": "severely line broadened"}]}
{"molecule": "DTKELILAIARKVKEMIKNS [hybrid protein]", "values": [{"measurement": "spectrum of hybrid protein relative to Orf63", "setting": "Orf63", "value": "resembled Orf63 with additional peaks from the helical ligand along with a set of chemical shift changes"}]}
{"molecule": "DTKELILAIARKVKEMIKNS [synthetic peptide]", "values": [{"measurement": "saturation of the complex", "setting": "15N-Orf63; 0.48 mM 15N-Orf63 (monomeric), 0.12-0.60 mM peptide, PBS pH 7.4, between 1:1 and 1.2:1 peptide:protomer ratio", "value": "the complex was deemed to be saturated with peptide ligand"}, {"measurement": "exchange regime of CSPs, majority of resonances", "setting": "15N-Orf63; 0.48 mM 15N-Orf63 (monomeric), titrated with peptide, PBS pH 7.4", "value": "fast exchange"}, {"measurement": "exchange regime of CSPs, minority of resonances in helix α2 from S45 onwards", "setting": "15N-Orf63; 0.48 mM 15N-Orf63 (monomeric), titrated with peptide, PBS pH 7.4, largest measured CSPs", "value": "slow exchange"}, {"measurement": "observed interaction surface (CSPs mapped on the structure)", "setting": "15N-Orf63; 0.48 mM 15N-Orf63, PBS pH 7.4", "value": "consistent with the predicted interaction surface of the model"}]}
{"molecule": "MAIAHAATEYVFADFVLK [reference compound]", "values": [{"measurement": "line broadening / chemical shift changes", "setting": "15N-Orf63 dimer", "value": "no chemical shift or line broadening changes"}]}
{"molecule": "Ea22: protein encoded between the exo and xis genes of phage λ (protein, UniProt P03756 1-182, looked up) Protein ea22: MSEINSQALREAAEQAMHDDWGFDADLFHELVTPSIVLELLDERERNQQYIKRRDQENEDIALTVGKLRVELETAKSKLNEQREYYEGVISDGSKRIAKLESNEVREDGNQFLVVRHPGKTPVIKHCTGDLEEFLRQLIEQDPLVTIDIITHRYYGVGGQWVQDAGEYLHMMSDAGIRIKGE", "values": [{"measurement": "lytic/lysogenic tendency", "setting": "[3]", "value": "pro-lysogenic"}]}
